Several values for one entry are separate records, joined by “and”; a condition that tells them apart may be missing. Equal values may be shown once.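 Values below derive from 48-hour exposures of cells grown in 96-well plates, with endpoints linearly interpolated between the two concentrations bracketing the appropriate inhibition level. At the GI50, growth is halved. TGI marks complete inhibition of growth.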
Experiments:
Test in all cases: growth of human tumour cells (NCI), 48 h
SNB-19 CNS = test system: SNB-19 CNS
SK-MEL-28 melanoma = test system: SK-MEL-28 melanoma
SK-MEL-5 melanoma = test system: SK-MEL-5 melanoma
MOLT-4 leukemia = test system: MOLT-4 leukemia
NCI-H23 lung = test system: NCI-H23 lung
SK-OV-3 ovarian = test system: SK-OV-3 ovarian
SF-295 CNS = test system: SF-295 CNS
TK-10 renal = test system: TK-10 renal
EKVX NSCLC = test system: EKVX NSCLC
786-0 renal = test system: 786-0 renal

Row | SMILES | GI50 (SNB-19 CNS) [µM] | TGI (SNB-19 CNS) | GI50 (SK-MEL-28 melanoma) [µM] | TGI (SK-MEL-28 melanoma) [µM] | GI50 (SK-MEL-5 melanoma) [µM] | TGI (SK-MEL-5 melanoma) [µM] | GI50 (MOLT-4 leukemia) [µM] | TGI (MOLT-4 leukemia) [µM] | GI50 (NCI-H23 lung) [µM] | TGI (NCI-H23 lung) [µM] | GI50 (SK-OV-3 ovarian) [µM] | TGI (SK-OV-3 ovarian) [µM] | GI50 (SF-295 CNS) [µM] | TGI (SF-295 CNS) [µM] | GI50 (TK-10 renal) [µM] | TGI (TK-10 renal) [µM] | GI50 (EKVX NSCLC) [µM] | TGI (EKVX NSCLC) [µM] | GI50 (786-0 renal) [µM] | TGI (786-0 renal)
1 | O=C(O)c1cn(C2CC2)c2cc(N3CCN(C(=O)Nc4nc(-c5ccccc5)cs4)CC3)c(F)cc2c1=O | 1.12 | > 100 µM | 0.705 | > 100 | 0.824 | 2.87 | 1.61 | 11.5 | 0.654 | 14 | 1.95 | 7.38 | 2.13 | 9.24 | 3.93 | 35.1 | 3.17 | 85.2 | 0.592 | 16.9 µM
2 | O=C(O)C1CCCCC1c1c2ccc(=O)c(O)c-2oc2c(O)c(O)ccc12 (stereo unspecified) |  | > 100 µM |  | > 100 |  | > 100 |  | 84.4 |  |  |  | > 100 |  | 56.4 |  | > 100 |  | > 100 |  | 46.2 µM
3 | COc1ccc2c(c1)CC[C@@H]1[C@@H]2CC[C@]2(C)[C@@H](NC(=O)/C=C/c3ccc(O)c(O)c3)CC[C@@H]12 | 15.7 | 48.6 µM | 18.5 | > 100 | 3.86 | 16.4 |  |  | 3.51 | 12.6 | 11.5 | 27.1 | 12.8 | 27.1 | 1.47 | 6.6 | 9.98 | 24.5 | 2.34 | 5.48 µM
4 | Cc1ccc(-c2c3c(nn2-c2ccc(S(N)(=O)=O)cc2)-c2ccccc2C3)cc1 | 37.4 | > 100 µM | 17.7 | 33.8 | 1.21 | 5.76 | 10.8 | 42.7 | 22.3 | 45.2 | 47.3 | > 100 | 20.7 | 47.3 | 19.2 | 38.1 | 19.5 | 51.7 | 15.2 | 31.8 µM
5 | CC(=O)NC1C(OCc2ccccc2)OC(CO)C(O)C1OC(C)C(=O)N[C@@H](C)C(=O)N[C@H](CCC(=O)OCCNc1c2ccccc2nc2cccc([N+](=O)[O-])c12)C(N)=O (stereo partly specified) |  | 0.00277 µM and 0.00694 µM |  | 0.0118 |  | 0.00855 |  | > 0.1 |  | 0.00545 |  | 0.0288 |  | 0.0339 |  | 0.0631 |  | 0.00472 |  | 0.00335 µM and 0.00671 µM
6 | CCCCC(C)C(OC(=O)CC(CC(=O)O)C(=O)O)C(CC(C)CC(O)CCCCC(O)CC(O)C(C)N)OC(=O)CC(CC(=O)O)C(=O)O (stereo unspecified) |  | > 100 µM |  | > 100 |  | > 100 |  | > 100 |  | > 100 |  | > 100 |  | > 100 |  | > 100 |  | > 100 |  | > 100 µM
7 | ON(Cc1ccccc1)C(=S)c1ccccc1 |  | > 100 µM |  | > 100 |  | > 100 |  | > 41 |  | 47.1 |  | > 100 |  | > 45.3 |  | > 100 |  | > 100 |  | > 100 µM
8 | COc1ccc(C(c2ccc(OCCN(C)C)cc2)c2cc3ccccc3c3ccccc23)cc1 (stereo unspecified) | 1.72 | 3.31 µM | 1.63 | 3.11 | 1.69 | 3.11 | 1.58 | 3.42 | 1.83 | 3.8 | 6.62 | 20.4 | 1.77 | 3.33 | 1.64 | 3.1 | 1.59 | 3.3 | 1.51 | 2.91 µM
9 | CCCCCCNC(=O)Oc1ccc(/C(=C(/C)Cc2ccc(OC)cc2)c2ccc(OCCCN(C)C)cc2)cc1 | 17.2 | 31.5 µM | 14.5 | 28.1 | 16.4 | 30.1 | 12.3 | 28.2 | 15.1 | 29.9 | 16.7 | 30.9 | 14.7 | 28.3 | 17.2 | 31.6 | 13.2 | 27.5 | 13.1 | 28.4 µM
10 | Nc1c(O)cc(N=C2C(=O)C=CC=C2C(=O)O)c(O)c1C(=O)O |  | > 100 µM |  | > 41.3 |  | > 100 |  | > 100 |  | > 100 |  | > 100 |  | > 100 |  | > 100 |  | > 100 |  | > 100 µM
11 | CN(Cc1cccc(F)c1)c1ccc(CO)c(Cl)c1 | 32.8 | > 100 µM | 20.7 | > 100 | 11 | 23.3 | 29 | > 83.5 | 13.3 | > 92.6 | 11.4 | 50.4 | 3.6 | > 100 | 0.186 | 0.851 | 27.2 | > 100 | 13 | 41.2 µM
12 | O=C(CC1(O)C(=O)Nc2ccc(Br)cc21)c1ccc(Cl)cc1Cl (stereo unspecified) |  | > 100 µM |  | > 100 |  |  |  | 68 |  | > 100 |  | > 100 |  | > 100 |  | > 100 |  | > 100 |  | > 100 µM
13 | CCN(CC)c1ccc(N=Nc2ccc([N+](=O)[O-])cc2OC(=O)/C=C/c2ccccc2)c(OC(=O)/C=C/c2ccccc2)c1 |  | > 100 µM |  | > 100 |  | > 100 |  | > 100 |  | > 100 |  | > 100 |  | > 100 |  | > 100 |  | > 100 |  | > 100 µM
14 | O=C(CN1CCN(c2cc3c(cc2F)c(=O)c(C(=O)O)cn3C2CC2)CC1)Nc1nc(-c2ccc(Cl)cc2)cs1 | 4.71 | > 100 µM | 3.02 | 45.8 | 2.76 | 8.05 | 3.31 | > 100 | 3.1 | > 100 | 3.24 | 19.1 | 2.77 | 29.6 | 4.28 | > 100 | 4.45 | > 100 | 4.24 | > 100 µM
15 | CCOc1ccc2c(c1)[n+]([O-])c(-c1ccc(Br)cc1)c(N)[n+]2[O-] |  | > 100 µM |  | > 100 |  | 40.9 |  | > 100 |  | 70.8 |  | > 100 |  | > 100 |  | > 100 |  | > 100 |  | > 100 µM

Source: PubChem BioAssay (NCI)
